In patent US8940756B2, “Dihydronaphthyridines and related compounds useful as kinase inhibitors for the treatment of proliferative diseases” (Deciphera Pharmaceuticals, Inc., priority 2012, dated 2015):

Assays:
[1] = biological target: T1, c-KIT D816H kinase (Seq ID no. 3) (Homo sapiens, UniProt P10721, D816H); test: c-KIT D816H Kinase Assay; type: biochemical; conditions: enzymatic assay, ATP 200 μM
T1 construct: GST (N); TEV cleavage site (N); purchased deCODE Biostructures

[2] = biological target: T2, c-KIT V654A kinase (Seq ID no. 2) (Homo sapiens, UniProt P10721, V654A); test: c-KIT V654A Kinase Assay; type: biochemical; conditions: enzymatic assay, ATP 200 μM
T2 construct: V654A c-Kit (residues T544-V976 with N-terminal GST fusion, 47 nM); purchased deCODE Biostructures
T2 sequence (P10721 544-976 V654A): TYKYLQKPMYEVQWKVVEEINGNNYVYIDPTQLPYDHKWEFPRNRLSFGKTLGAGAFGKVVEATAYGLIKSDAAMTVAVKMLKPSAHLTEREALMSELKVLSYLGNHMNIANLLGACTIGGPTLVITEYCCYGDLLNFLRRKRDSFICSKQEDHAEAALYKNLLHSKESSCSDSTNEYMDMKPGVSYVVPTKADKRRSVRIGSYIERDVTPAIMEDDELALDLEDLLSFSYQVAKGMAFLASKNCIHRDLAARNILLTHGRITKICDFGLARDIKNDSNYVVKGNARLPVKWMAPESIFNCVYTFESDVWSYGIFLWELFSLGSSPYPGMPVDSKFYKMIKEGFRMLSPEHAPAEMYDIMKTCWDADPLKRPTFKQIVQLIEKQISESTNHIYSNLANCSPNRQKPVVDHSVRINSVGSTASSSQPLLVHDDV
Protocol: In this assay, the oxidation of NADH (measured by decrease in absorbance at 340 nm) was continuously monitored spectrophotometrically. […] The inhibition reaction was started by mixing serial diluted test compound with the above reaction mixture. The absorption at 340 nm was monitored continuously for 6 hours at 30° C. on Synergy 2 plate reader (BioTech).
The protein construct was prepared by deCODE Biostructures using procedures known in the art. The construct contains residues T544-V976 of cKit, an N-terminal tag, a GST-fusion sequence and a TEV cleavage site. This construct is identical to Seq ID no.

[3] = biological target: T3, c-KIT D816V kinase (Seq ID no. 4) (Homo sapiens, UniProt P10721, D816V); test: c-KIT D816V kinase Assay; type: biochemical; conditions: enzymatic assay, ATP 200 uM
T3 construct: D816V c-KIT (residues T544-V976 with N-terminal GST fusion, 16 nM); purchased deCODE Biostructures
T3 sequence (P10721 544-976 D816V): as the sequence (P10721 544-976 V654A) above, with A111V, D273V counted along it

[4] = biological target: Phospho-KIT (Tyr719) in GIST48 cells (Homo sapiens, UniProt P10721); test: GIST48 KIT Western Blot; type: cell-based; conditions: 4 hours, read-out: pKIT suppression by western blot analysi GIST48
Chain of Phospho-KIT (Tyr719) in GIST48 cells (P10721 whole entry V560D/D820A, form open): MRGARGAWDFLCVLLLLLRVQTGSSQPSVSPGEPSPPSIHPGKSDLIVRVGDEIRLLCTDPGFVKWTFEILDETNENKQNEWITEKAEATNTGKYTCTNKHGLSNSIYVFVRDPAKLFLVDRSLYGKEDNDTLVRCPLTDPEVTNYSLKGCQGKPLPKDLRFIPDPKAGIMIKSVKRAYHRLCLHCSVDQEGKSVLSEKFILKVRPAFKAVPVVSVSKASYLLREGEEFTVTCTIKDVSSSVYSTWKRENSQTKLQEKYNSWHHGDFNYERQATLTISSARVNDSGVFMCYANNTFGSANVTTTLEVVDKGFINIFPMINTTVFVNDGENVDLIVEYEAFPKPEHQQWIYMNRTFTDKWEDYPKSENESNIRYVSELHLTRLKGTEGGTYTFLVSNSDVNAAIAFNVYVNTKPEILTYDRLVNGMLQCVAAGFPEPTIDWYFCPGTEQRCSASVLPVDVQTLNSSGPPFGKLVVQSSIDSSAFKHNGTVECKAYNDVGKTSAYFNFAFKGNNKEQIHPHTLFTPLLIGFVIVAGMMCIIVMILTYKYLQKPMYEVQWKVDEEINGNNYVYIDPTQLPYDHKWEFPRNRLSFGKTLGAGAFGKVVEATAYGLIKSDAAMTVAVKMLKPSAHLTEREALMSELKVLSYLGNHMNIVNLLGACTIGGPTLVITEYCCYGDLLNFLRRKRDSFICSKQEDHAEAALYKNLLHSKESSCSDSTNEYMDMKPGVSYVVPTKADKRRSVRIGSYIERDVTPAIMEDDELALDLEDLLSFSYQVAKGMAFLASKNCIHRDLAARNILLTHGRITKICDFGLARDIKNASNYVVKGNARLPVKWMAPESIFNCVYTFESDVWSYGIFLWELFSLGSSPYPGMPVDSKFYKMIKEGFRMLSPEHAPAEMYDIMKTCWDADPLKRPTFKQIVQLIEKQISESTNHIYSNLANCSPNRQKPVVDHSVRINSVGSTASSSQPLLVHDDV

[5] = biological target: T4, c-KIT kinase (Seq ID no. 1) (Homo sapiens, UniProt P10721); test: c-KIT Kinase Assay (pyruvate kinase/lactate dehydrogenase coupled); type: biochemical; conditions: enzymatic assay, ATP 200 μM; read-out: KIT (wt)
T4 construct: GST (N); TEV cleavage site (N); purchased deCODE Biostructures
T4 sequence (P10721 with tags, fused parts or gaps): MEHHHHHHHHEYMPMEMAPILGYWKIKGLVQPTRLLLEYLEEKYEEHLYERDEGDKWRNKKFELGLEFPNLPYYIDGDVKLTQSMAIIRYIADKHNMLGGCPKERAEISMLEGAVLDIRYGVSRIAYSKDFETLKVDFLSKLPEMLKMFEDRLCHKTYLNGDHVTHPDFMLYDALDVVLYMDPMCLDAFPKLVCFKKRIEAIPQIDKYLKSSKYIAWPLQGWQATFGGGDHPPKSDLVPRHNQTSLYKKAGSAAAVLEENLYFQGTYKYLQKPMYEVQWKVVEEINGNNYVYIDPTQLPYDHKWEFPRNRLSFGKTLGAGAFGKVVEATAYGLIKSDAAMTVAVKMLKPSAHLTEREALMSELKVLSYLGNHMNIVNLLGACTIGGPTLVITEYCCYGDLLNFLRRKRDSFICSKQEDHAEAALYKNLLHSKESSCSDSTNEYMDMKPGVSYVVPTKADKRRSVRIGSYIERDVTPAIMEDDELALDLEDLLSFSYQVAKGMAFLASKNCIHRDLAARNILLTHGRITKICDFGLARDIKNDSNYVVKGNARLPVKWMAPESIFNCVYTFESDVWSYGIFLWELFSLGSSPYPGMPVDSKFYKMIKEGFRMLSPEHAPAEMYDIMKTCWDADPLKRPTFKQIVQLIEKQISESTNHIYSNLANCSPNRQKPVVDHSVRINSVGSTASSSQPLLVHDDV

[6] = biological target: Phospho-KIT (Tyr719) in GIST430 cells (Homo sapiens, UniProt P10721); test: GIST430 KIT Western Blot; type: cell-based; conditions: 4 hours, read-out: pKIT suppression by western blot analysi GIST430
Chain of Phospho-KIT (Tyr719) in GIST430 cells (P10721 with tags, fused parts or gaps DEL560-576/V654A, form open): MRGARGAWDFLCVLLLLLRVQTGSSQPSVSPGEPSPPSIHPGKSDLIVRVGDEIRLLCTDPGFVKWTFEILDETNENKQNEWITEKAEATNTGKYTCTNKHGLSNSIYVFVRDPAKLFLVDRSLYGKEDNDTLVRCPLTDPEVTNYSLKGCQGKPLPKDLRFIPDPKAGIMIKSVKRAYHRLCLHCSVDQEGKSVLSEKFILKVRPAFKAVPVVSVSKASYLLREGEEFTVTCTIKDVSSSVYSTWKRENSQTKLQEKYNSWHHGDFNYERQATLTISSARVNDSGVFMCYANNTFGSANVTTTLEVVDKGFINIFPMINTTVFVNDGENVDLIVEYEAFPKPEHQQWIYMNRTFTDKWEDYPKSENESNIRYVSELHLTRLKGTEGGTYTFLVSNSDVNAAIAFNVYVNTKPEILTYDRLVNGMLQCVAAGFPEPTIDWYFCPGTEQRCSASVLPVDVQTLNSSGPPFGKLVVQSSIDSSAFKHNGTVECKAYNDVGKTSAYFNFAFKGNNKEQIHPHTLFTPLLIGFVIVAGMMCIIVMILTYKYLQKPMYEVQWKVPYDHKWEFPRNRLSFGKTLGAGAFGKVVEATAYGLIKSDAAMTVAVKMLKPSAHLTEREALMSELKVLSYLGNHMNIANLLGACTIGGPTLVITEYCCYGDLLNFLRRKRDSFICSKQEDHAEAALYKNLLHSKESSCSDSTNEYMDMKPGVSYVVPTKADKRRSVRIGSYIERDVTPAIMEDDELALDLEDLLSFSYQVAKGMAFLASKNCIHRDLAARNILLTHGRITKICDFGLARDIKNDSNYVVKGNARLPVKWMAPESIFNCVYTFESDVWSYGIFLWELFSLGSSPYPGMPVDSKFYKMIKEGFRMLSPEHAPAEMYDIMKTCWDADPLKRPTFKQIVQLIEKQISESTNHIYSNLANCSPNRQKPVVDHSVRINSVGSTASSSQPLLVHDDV

T1 sequence (P10721 544-976 D816H): as the sequence (P10721 544-976 V654A) above, with A111V, D273H counted along it

## CCn1c(=O)c(-c2cc(NC(=O)Nc3ccccc3)c(F)cc2Cl)cc2cnc(N)cc21 [Example 21, 1-(5-(7-amino-1-ethyl-2-oxo-1,2-dihydro-1,6-naphthyridin-3-yl)-4-chloro-2-fluorophenyl)-3-phenylurea]
[1]
  IC50: < 10 nM
[2]
  IC50: < 10 nM
[3]
  IC50: 10 to 100 nM
[4]
  IC50: 10 to 100 nM
[5]
  IC50: < 10 nM
[6]
  IC50: < 10 nM

## CCn1c(=O)c(-c2cc(NC(=O)Nc3cccc(CN4CCN(C)CC4)c3)c(F)cc2Cl)cc2cnc(NC)cc21 [Example 79, 1-(4-chloro-5-(1-ethyl-7-(methylamino)-2-oxo-1,2-dihydro-1,6-naphthyridin-3-yl)-2-fluorophenyl)-3-(3-((4-methylpiperazin-1-yl)methyl)phenyl)urea]
[1]
  IC50: 10 to 100 nM
[2]
  IC50: 100 to 1000 nM
[3]
  IC50: 100 to 1000 nM
[4]
  IC50: 10 to 100 nM
[5]
  IC50: < 10 nM
[6]
  IC50: 10 to 100 nM

## CCn1c(=O)c(-c2cc(NC(=O)Nc3cc(F)cc(CN4CCN(C)CC4)c3)c(F)cc2Cl)cc2cnc(NC)cc21 [Example 88, 1-(4-chloro-5-(1-ethyl-7-(methylamino)-2-oxo-1,2-dihydro-1,6-naphthyridin-3-yl)-2-fluorophenyl)-3-(3-fluoro-5-((4-methylpiperazin-1-yl)methyl)phenyl)urea]
[1]
  IC50: 10 to 100 nM
[2]
  IC50: 10 to 100 nM
[3]
  IC50: 100 to 1000 nM
[4]
  IC50: 10 to 100 nM
[5]
  IC50: < 10 nM
[6]
  IC50: 10 to 100 nM
